Reference: ChEMBL document CHEMBL1201861, “Genomics of Drug Sensitity in Cancer screening data, Wellcome Trust Sanger Institute”
pIC50: −log10 of the molar value.

Experiments:
Assay in all cases: cells
Type in all cases: functional, cell-based, Homo sapiens
OCI-AML2 = settings: oci-aml2
Description: SANGER: Inhibition of human OCI-AML2 cell growth in a cell viability assay.

DJM-1 = settings: djm-1
Description: SANGER: Inhibition of human DJM-1 cell growth in a cell viability assay.

SW982 = settings: sw982
Description: SANGER: Inhibition of human SW982 cell growth in a cell viability assay.

NCI-H1581 = settings: nci-h1581
Description: SANGER: Inhibition of human NCI-H1581 cell growth in a cell viability assay.

RH-1 = settings: rh-1
Description: SANGER: Inhibition of human RH-1 cell growth in a cell viability assay.

HDLM-2 = settings: hdlm-2
Description: SANGER: Inhibition of human HDLM-2 cell growth in a cell viability assay.

SW 954 = settings: sw 954
Description: SANGER: Inhibition of human SW954 cell growth in a cell viability assay.

KALS-1 = settings: kals-1
Description: SANGER: Inhibition of human KALS-1 cell growth in a cell viability assay.

KINGS-1 = settings: kings-1
Description: SANGER: Inhibition of human KINGS-1 cell growth in a cell viability assay.

SF-268 = settings: sf-268
Description: SANGER: Inhibition of human SF268 cell growth in a cell viability assay.

U-266 = settings: u-266
Description: SANGER: Inhibition of human U-266 cell growth in a cell viability assay.

D-247MG = settings: d-247mg
Description: SANGER: Inhibition of human D-247MG cell growth in a cell viability assay.

IST-MEL1 = settings: ist-mel1
Description: SANGER: Inhibition of human IST-MEL1 cell growth in a cell viability assay.

DU-4475 = settings: du-4475
Description: SANGER: Inhibition of human DU-4475 cell growth in a cell viability assay.

HCC 2998 = settings: hcc 2998
Description: SANGER: Inhibition of human HCC2998 cell growth in a cell viability assay.

TGBC24TKB = settings: tgbc24tkb
Description: SANGER: Inhibition of human TGBC24TKB cell growth in a cell viability assay.

NCI-H526 = settings: nci-h526
Description: SANGER: Inhibition of human NCI-H526 cell growth in a cell viability assay.

OCUB-M = settings: ocub-m
Description: SANGER: Inhibition of human OCUB-M cell growth in a cell viability assay.

DMS-79 = settings: dms-79
Description: SANGER: Inhibition of human DMS-79 cell growth in a cell viability assay.

GAK = settings: gak
Description: SANGER: Inhibition of human GAK cell growth in a cell viability assay.

LS-123 = settings: ls-123
Description: SANGER: Inhibition of human LS-123 cell growth in a cell viability assay.

MS-1 = settings: ms-1
Description: SANGER: Inhibition of human MS-1 cell growth in a cell viability assay.

SCH = settings: sch
Description: SANGER: Inhibition of human SCH cell growth in a cell viability assay.

Mo = settings: mo
Description: SANGER: Inhibition of human Mo-T cell growth in a cell viability assay.

SCC-15 = settings: scc-15
Description: SANGER: Inhibition of human SCC-15 cell growth in a cell viability assay.

NB17 = settings: nb17
Description: SANGER: Inhibition of human NB17 cell growth in a cell viability assay.

LOX IMVI = settings: lox imvi
Description: SANGER: Inhibition of human LOXIMVI cell growth in a cell viability assay.

OVCAR-4 = settings: ovcar-4
Description: SANGER: Inhibition of human OVCAR-4 cell growth in a cell viability assay.

TE-6 = settings: te-6
Description: SANGER: Inhibition of human TE-6 cell growth in a cell viability assay.

L-363 = settings: l-363
Description: SANGER: Inhibition of human L-363 cell growth in a cell viability assay.

EW-1 = settings: ew-1
Description: SANGER: Inhibition of human EW-1 cell growth in a cell viability assay.

NCI-H1304 = settings: nci-h1304
Description: SANGER: Inhibition of human NCI-H1304 cell growth in a cell viability assay.

NCI-H1770 = settings: nci-h1770
Description: SANGER: Inhibition of human NCI-H1770 cell growth in a cell viability assay.

RPMI-8866 = settings: rpmi-8866
Description: SANGER: Inhibition of human RPMI-8866 cell growth in a cell viability assay.

PSN1 = settings: psn1
Description: SANGER: Inhibition of human PSN1 cell growth in a cell viability assay.

MOLT-4 = settings: molt-4
Description: SANGER: Inhibition of human MOLT-4 cell growth in a cell viability assay.

SK-MEL-2 = settings: sk-mel-2
Description: SANGER: Inhibition of human SK-MEL-2 cell growth in a cell viability assay.

UACC-257 = settings: uacc-257
Description: SANGER: Inhibition of human UACC-257 cell growth in a cell viability assay.

GB-1 = settings: gb-1
Description: SANGER: Inhibition of human GB-1 cell growth in a cell viability assay.

no-11 = tested on: no-11;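 note: growth inhibition of human NO-11 cells, read out with a cell viability assay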
Description: SANGER: Inhibition of human no-11 cell growth in a cell viability assay.

EW-18 = settings: ew-18
Description: SANGER: Inhibition of human EW-18 cell growth in a cell viability assay.

BV-173 = settings: bv-173
Description: SANGER: Inhibition of human BV-173 cell growth in a cell viability assay.

NB10 = settings: nb10
Description: SANGER: Inhibition of human NB10 cell growth in a cell viability assay.

K562 = settings: k562
Description: SANGER: Inhibition of human K-562 cell growth in a cell viability assay.

Ramos-2G6-4C10 = settings: ramos-2g6-4c10
Description: SANGER: Inhibition of human Ramos-2G6-4C10 cell growth in a cell viability assay.

RPMI-8226 = settings: rpmi-8226
Description: SANGER: Inhibition of human RPMI-8226 cell growth in a cell viability assay.

CGTH-W-1 = settings: cgth-w-1
Description: SANGER: Inhibition of human CGTH-W-1 cell growth in a cell viability assay.

NCI-H1299 = settings: nci-h1299
Description: SANGER: Inhibition of human NCI-H1299 cell growth in a cell viability assay.

RXF 393 = settings: rxf 393
Description: SANGER: Inhibition of human RXF393 cell growth in a cell viability assay.

## CISPLATIN
OCI-AML2
  pIC50: 4.81
DJM-1
  pIC50: 5.20
SW982
  pIC50: 4.64
NCI-H1581
  pIC50: 4.92
RH-1
  pIC50: 3.48
HDLM-2
  pIC50: 3.84
SW 954
  pIC50: 4.95
KALS-1
  pIC50: 4.15
KINGS-1
  pIC50: 4.37
SF-268
  pIC50: 5.29
U-266
  pIC50: 3.81
D-247MG
  pIC50: 4.96
IST-MEL1
  pIC50: 5.03
DU-4475
  pIC50: 3.95
HCC 2998
  pIC50: 3.57
TGBC24TKB
  pIC50: 4.40
NCI-H526
  pIC50: 5.69
OCUB-M
  pIC50: 4.64
DMS-79
  pIC50: 4.61
GAK
  pIC50: 3.31
LS-123
  pIC50: 3.31
MS-1
  pIC50: 4.85
SCH
  pIC50: 4.88
Mo
  pIC50: 3.05
SCC-15
  pIC50: 4.54
NB17
  pIC50: 4.16
LOX IMVI
  pIC50: 4.88
OVCAR-4
  pIC50: 4.65
TE-6
  pIC50: 4.24
L-363
  pIC50: 5.40
EW-1
  pIC50: 5.07
NCI-H1304
  pIC50: 5.01
NCI-H1770
  pIC50: 3.38
RPMI-8866
  pIC50: 4.88
PSN1
  pIC50: 5.78
MOLT-4
  pIC50: 4.05
SK-MEL-2
  pIC50: 3.65
UACC-257
  pIC50: 3.97
GB-1
  pIC50: 5.72
no-11
  pIC50: 4.81
EW-18
  pIC50: 4.45
BV-173
  pIC50: 4.38
NB10
  pIC50: 4.94
K562
  pIC50: 3.29
Ramos-2G6-4C10
  pIC50: 4.58
RPMI-8226
  pIC50: 3.72
CGTH-W-1
  pIC50: 5.34
NCI-H1299
  pIC50: 4.57
RXF 393
  pIC50: 5.10
